Measured values reported in paper PMC12670400, “LEKTI-Grafted Sunflower Trypsin Inhibitor: A Potential Therapeutic for Skin Diseases” (Journal of Medicinal Chemistry, 2025).
Bridge positions count the residues as written; N and C are the ends. Peptide text beside a SMILES is read from it.

Biological target: T1, KLK5 (Homo sapiens, UniProt Q9Y337)
T1 construct: purchased R&D Systems 1108-SE
T1 sequence (Q9Y337 23-293): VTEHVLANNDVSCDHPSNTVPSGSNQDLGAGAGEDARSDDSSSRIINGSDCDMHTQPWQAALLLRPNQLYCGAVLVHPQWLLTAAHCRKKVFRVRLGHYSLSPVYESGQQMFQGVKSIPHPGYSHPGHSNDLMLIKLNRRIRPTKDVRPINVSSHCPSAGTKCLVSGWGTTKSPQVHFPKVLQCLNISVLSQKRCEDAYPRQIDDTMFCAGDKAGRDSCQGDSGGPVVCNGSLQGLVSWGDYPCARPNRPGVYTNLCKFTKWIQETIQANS
Assay: Protease activity assay: inhibition of recombinant KLK5 (Boc-VPR-AMC substrate)
Assay type: biochemical
Details: ratio of IC50 values
Procedure: Inhibitory activity against KLK5 was evaluated using the fluorogenic substrate Boc-VPR-AMC for KLK5 (Table ). […] The P1–P1′ reactive site (Arg5 to Ser6) is critical for inhibitor binding, with the P1′ position contributing up to 50% of the total association energy. , The conserved serine at P1′ in Bowman-Birk inhibitors (BBIs) is essential for function. […] Preservation of serine in the P1′ position restored inhibitory activity seen in 5 and 6. Preserving the native serine restored efficacy to the nanomolar range (5: 31 ± 7 nM; 6: 114 ± 11 nM).
Methods for biological experiment
SFTI analogues were created by individual amino acid substitutions in PYMOL (Python Molecular Graphics System) using the existing solution NMR structure of native SFTI - 1 (1JBL) found in the RCSB (Research Collaboratory for Structural Bioinformatics) database. Residues of 2 were mutated as follows: L5R, I10H, and F12W with conserved SFTI-1 backbone structure. Other SFTI based analogues were further modified using PYMOL. Currently, there are no SFTI-1 and Kallikrein 5 co-crystal structures found in the RCSB database. Superimposing the existing crystal structure of SFTI-1 and Trypsin complex (4XOJ) with Kallikrein 5 crystal structure (2PSX) was performed with PYMOL. Ab-initio docking between KLK5 and 2 were performed with HADDOCK 2.4 1, 2, with binding active site parameter set to Arg2, Cys3, Thr4, Arg5, Ser6 for 2 and Ser195, His57, and Asp102 for KLK5 catalytic triad. PRODIGY 3-5, set at 25 °C, was used to predict dissociation constant and binding interactions of docked clusters. Structural visualization and alignment were performed with PYMOL 6, and comparative sequence analysis was performed with MEGA11 7.
A fluorescence spectrometer using SpectraMax® i3x plate reader (Molecular Devices, United States) was used to measure the relative fluorescence unit (RFU) on a 96-well black microplate (Grenier Bio-one, cat no. 655074). The wavelengths were set to 360/460 nm (excitation/emission) for the substrate Boc-VPR-AMC (Bachem AG, cat no. 4003460) and 320/405nm for the substrate Mca-RPKPVE-Nval-WRK(Dnp)-NH2 Fluorogenic MMP Substrate (R&D Systems Biotechne, cat no.ES002). The Boc-VPR-AMC stock solution was prepared by dissolving the solid form in dimethyl sulfoxide to 100 mM. Mca-RPKPVE-Nval-WRK(Dnp)-NH2 fluorogenic MMP Substrate is supplied as stock solution at 10.0 mg/mL in dimethyl sulfoxide. Boc-VPR-AMC was used as a substrate for KLK5, 8 and 14. Mca-RPKPVE-Nval-WRK(Dnp)-NH2 was used as a substrate for KLK7. The ligand-only solution serves as a negative control (minimum RFU, 100% inhibition), and enzyme-only was served as positive (maximum RFU, 0% inhibition). The activities of proteases were measured and readout against the standard curve made in serial dilutions of tested recombinant KLKs, ranging from 0nM to 60nM. Each assay was done in triplicates and repeated at least for three times […]
Assessment of analogue mediated inhibition of KLK5, KLK7, KLK8, and KLK14 […]
Recombinant KLK5 (R&D Systems, cat no. 1108-SE) was diluted to a final concentration of 10 nM in 1X PBS (pH 8.0). KLK5 was pre -incubated on ice for 1 hour with serial dilutions of SFTI-derived analogues to assess inhibitory activity. After incubation, 20 µL of each mixture was transferred to we lls of a 96-well microplate in triplicates. The enzymatic reaction was initiated by adding 100 µL of Boc -VPR-AMC substrate (final concentration 100 µM) to each well. Fluorescence (RFU) was measured using a SpectraMax® i3x plate reader with chamber temperature maintained at 37°C. Readings were started at 0 minutes (baseline) and another […]
Recombinant KLK7 (R&D Systems , cat no. 2624-SE) and KLK14 (R&D Systems, cat no. 2664-SE) were activated by adding 1 mM CaCl ₂ 0.05% v/v Brij-35 (Sigma, cat no. […]
incubated at 37°C for 1 hour. Reactions were stopped by adding EDTA to a final concentration of 50 mM (Sigma, cat no. EDS-100G) KLK8 (catalytic domain only; R&D Systems, cat no. 2025-SE-010) was activated separately with 11 nM lysyl […]

Compound: C[C@@H](O)[C@@H]1NC(=O)[C@@H]2CSSC[C@H](NC(=O)[C@H](CCC(=O)O)NC(=O)[C@@H]3CCCN3C(=O)[C@@H]3CCCN3C(=O)[C@H](CC(N)=O)NC(=O)[C@H](CO)NC(=O)[C@H](CCCNC(=N)N)NC1=O)C(=O)N[C@@H](Cc1c[nH]c3ccccc13)C(=O)N1CCC[C@H]1C(=O)N[C@@H](CC(N)=O)C(=O)NCC(=O)N[C@@H](Cc1ccccc1)C(=O)N2 [compound 7] (cyclo(GFCTRSNPPECWPN); disulfide 3-11)
- increase in KLK5 inhibitory potency (IC50) compared to 2: 4 fold
- increase in KLK5 inhibitory potency (IC50) relative to 1: 16 fold
